Measured values as given in ChEMBL document CHEMBL1697821, “Development of a phospholipidosis database and predictive quantitative structure-activity relationship (QSAR) models” (Toxicol Mech Methods, 2008).

system: Phospholipidosis; assay: Literature-mined public compounds from Kruhlak et al phospholipidosis modelling dataset

Structure (SMILES)	Phospholipidosis
C1CCC(C(CC2CCCCN2)C2CCCCC2)CC1 (centres undefined) [PERHEXILINE]	Positive: strong inducer confirmed by electron microscopy
CCC[C@H](N[C@@H](C)C(=O)N1[C@H](C(=O)O)C[C@@H]2CCCC[C@@H]21)C(=O)OCC [PERINDOPRIL]	Negative: based on the absence of positive reported data from WMDD
OCCN1CCN(CCCN2c3ccccc3Sc3ccc(Cl)cc32)CC1 [PERPHENAZINE]	Negative: based on the absence of positive reported data from WMDD
NC(=O)NC(=O)Cc1ccccc1 [PHENACEMIDE]	Negative: based on the absence of positive reported data from WMDD
CCOc1ccc(NC(C)=O)cc1 [PHENACETIN]	Positive: strong inducer confirmed by electron microscopy
Nc1ccc(/N=N/c2ccccc2)c(N)n1 [PHENAZOPYRIDINE]	Negative: based on the absence of positive reported data from WMDD
C[C@H]1[C@H](c2ccccc2)OCCN1C [PHENDIMETRAZINE]	Negative: based on the absence of positive reported data from WMDD
CC(Oc1ccccc1)C(=O)N[C@@H]1C(=O)N2[C@@H]1SC(C)(C)[C@@H]2C(=O)O (some centres undefined) [PHENETHICILLIN]	Negative: based on the absence of positive reported data from WMDD
CN1CCC2=C(C1)C(c1ccccc1)c1ccccc12 (centres undefined) [PHENINDAMINE]	Negative: based on the absence of positive reported data from WMDD
O=C1c2ccccc2C(=O)C1c1ccccc1 [PHENINDIONE]	Negative: based on the absence of positive reported data from WMDD
CN(C)CCC(c1ccccc1)c1ccccn1 (centres undefined) [PHENIRAMINE]	Negative: based on the absence of positive reported data from WMDD
CCC1(c2ccccc2)C(=O)NC(=O)NC1=O [PHENOBARBITAL]	Negative: confirmed by electron microscopy
O=C1OC(c2ccc(O)cc2)(c2ccc(O)cc2)c2ccccc21 [PHENOLPHTHALEIN]	Negative: based on the absence of positive reported data from WMDD
CCC(c1ccccc1)c1c(O)c2ccccc2oc1=O (centres undefined) [PHENPROCOUMON]	Negative: based on the absence of positive reported data from WMDD
CC(C)(N)Cc1ccccc1 [PHENTERMINE]	Positive: weak inducer based on presence of foamy macrophages and cytoplasmic vacuolations
Cc1ccc(N(CC2=NCCN2)c2cccc(O)c2)cc1 [PHENTOLAMINE]	Negative: based on the absence of positive reported data from WMDD
CC[C@@H]1C(=O)OC[C@@H]1Cc1cncn1C [PILOCARPINE]	Negative: based on the absence of positive reported data from WMDD
CC(C)NCC(O)COc1cccc2[nH]ccc12 (centres undefined) [PINDOLOL]	Negative: based on the absence of positive reported data from WMDD
CC[N+]1(C)CCCC(OC(=O)C(O)(c2ccccc2)c2ccccc2)C1.[Br-] (centres undefined) [PIPENZOLATE BROMIDE]	Negative: based on the absence of positive reported data from WMDD
CC(C(=O)O)c1ccc2c(c1)Cc1cccnc1O2 (centres undefined) [PRANOPROFEN]	Negative: based on the absence of positive reported data from WMDD

Structure (SMILES)	Phospholipidosis
C[C@]12C=CC(=O)C=C1CC[C@@H]1[C@@H]2[C@@H](O)C[C@@]2(C)[C@H]1CC[C@]2(O)C(=O)COC(=O)CCC(=O)O [PREDNISOLONE HEMISUCCINATE]	Negative: based on the absence of positive reported data from WMDD
CCCCC(=O)O[C@]1(C(=O)COC(C)=O)CC[C@H]2[C@@H]3CCC4=CC(=O)C=C[C@]4(C)[C@H]3[C@@H](O)C[C@@]21C [PREDNISOLONE VALERATE ACETATE]	Negative: based on the absence of positive reported data from WMDD
CC(C)NC[C@H](O)COc1ccc(O)cc1 [PRENALTEROL]	Negative: based on the absence of positive reported data from WMDD
CC(Cc1ccccc1)NCCC(c1ccccc1)c1ccccc1 (centres undefined) [PRENYLAMINE]	Positive: weak inducer based on presence of foamy macrophages and cytoplasmic vacuolations
CCCN(CCC)S(=O)(=O)c1ccc(C(=O)O)cc1 [PROBENECID]	Negative: based on the absence of positive reported data from WMDD
CCN(CC)CCNC(=O)c1ccc(N)cc1 [PROCAINAMIDE]	Negative: confirmed by electron microscopy
CCCN(CCC)C(=O)C(CCC(=O)O)NC(=O)c1ccccc1 (centres undefined) [PROGLUMIDE]	Negative: based on the absence of positive reported data from WMDD
CN(C)CCCN1c2ccccc2Sc2ccccc21 [PROMAZINE]	Positive: weak inducer based on presence of foamy macrophages and cytoplasmic vacuolations
CC(CN1c2ccccc2Sc2ccccc21)N(C)C (centres undefined) [PROMETHAZINE]	Positive: weak inducer based on presence of foamy macrophages and cytoplasmic vacuolations
CC(C)[N+](C)(CCOC(=O)C1c2ccccc2Oc2ccccc21)C(C)C.[Br-] [PROPANTHELINE BROMIDE]	Negative: based on the absence of positive reported data from WMDD
CCC(=O)c1ccc2c(c1)N(CC(C)N(C)C)c1ccccc1S2 (centres undefined) [PROPIOMAZINE]	Negative: based on the absence of positive reported data from WMDD
CCC(=O)O[C@](Cc1ccccc1)(c1ccccc1)[C@H](C)CN(C)C [PROPOXYPHENE]	Negative: based on the absence of positive reported data from WMDD
CC(C)NCC(O)COc1cccc2ccccc12 (centres undefined) [PROPRANOLOL]	Positive: weak inducer based on presence of foamy macrophages and cytoplasmic vacuolations
CCCOC(=O)c1ccc(O)cc1 [PROPYLPARABEN]	Negative: based on the absence of positive reported data from WMDD
Cc1ccc2c(-c3ccccc3)nc(=O)n(C(C)C)c2c1 [PROQUAZONE]	Negative: based on the absence of positive reported data from WMDD
C[C@@H]1O[C@@H](O[C@@H]2C=C3CC[C@@H]4[C@H](CC[C@]5(C)[C@@H](c6ccc(=O)oc6)CC[C@]45O)[C@@]3(C)CC2)[C@H](O)[C@H](O)[C@H]1O [PROSCILLARIDIN]	Negative: based on the absence of positive reported data from WMDD
CNCCCC1c2ccccc2C=Cc2ccccc21 [PROTRIPTYLINE]	Negative: based on the absence of positive reported data from WMDD
CC(O)Cn1cnc2c1c(=O)n(C)c(=O)n2C (centres undefined) [PROXYPHYLLINE]	Negative: based on the absence of positive reported data from WMDD
CN[C@@H](C)[C@@H](O)c1ccccc1 [PSEUDOEPHEDRINE]	Negative: based on the absence of positive reported data from WMDD
Clc1ccc(C/C(=C\CN2CCCC2)c2ccccc2)cc1 [PYRROBUTAMINE]	Negative: based on the absence of positive reported data from WMDD

Structure (SMILES)	Phospholipidosis
CCN(CC)CCCC(C)Nc1c2ccc(Cl)cc2nc2ccc(OC)cc12 (centres undefined) [QUINACRINE]	Positive: strong inducer confirmed by electron microscopy
CCC1NC(=O)c2cc(S(N)(=O)=O)c(Cl)cc2N1 (centres undefined) [QUINETHAZONE]	Negative: based on the absence of positive reported data from WMDD
C=C[C@H]1C[N@@]2CC[C@H]1C[C@@H]2[C@@H](O)c1ccnc2ccc(OC)cc12 [QUINIDINE]	Positive: weak inducer based on presence of foamy macrophages and cytoplasmic vacuolations
CC(CN1CC(=O)NC(=O)C1)N1CC(=O)NC(=O)C1 (centres undefined) [RAZOXANE]	Negative: based on the absence of positive reported data from WMDD
CC1=C(/C=C/C(C)=C/C=C/C(C)=C/CO)C(C)(C)CCC1 [RETINOL]	Negative: based on the absence of positive reported data from WMDD
NC(=O)c1ncn([C@@H]2O[C@H](CO)[C@@H](O)[C@H]2O)n1 [RIBAVIRIN]	Negative: based on the absence of positive reported data from WMDD
Cc1cc2nc3c(=O)[nH]c(=O)nc-3n(C[C@H](O)[C@H](O)[C@H](O)COP(=O)(O)O)c2cc1C [RIBOFLAVIN 5'-PHOSPHATE]	Negative: based on the absence of positive reported data from WMDD
Cc1cc2nc3c(=O)[nH]c(=O)nc-3n(C[C@H](O)[C@H](O)[C@H](O)CO)c2cc1C [RIBOFLAVIN]	Negative: based on the absence of positive reported data from WMDD
CCn1nc(C)c2c1C(c1ccccc1)=NCC(=O)N2 [RIPAZEPAM]	Negative: based on the absence of positive reported data from WMDD
CN(C)CCc1c[nH]c2ccc(Cn3cncn3)cc12 [RIZATRIPTAN]	Negative: based on the absence of positive reported data from WMDD
CS(=O)(=O)c1ccc(C2=C(c3ccccc3)C(=O)OC2)cc1 [ROFECOXIB]	Negative: based on the absence of positive reported data from WMDD
CCCC(=O)O[C@H]1[C@H](C)O[C@@H](O[C@H]2[C@H](N(C)C)[C@@H](O)[C@H](O[C@H]3[C@@H](CC=O)C[C@@H](C)[C@@H](O)/C=C/C=C/C[C@@H](C)OC(=O)C[C@@H](O)[C@@H]3OC)O[C@@H]2C)C[C@@]1(C)OC(=O)CC [ROKITAMYCIN]	Negative: based on the absence of positive reported data from WMDD
O=C(Oc1ccccc1C(=O)O)c1ccccc1O [SALSALATE]	Negative: based on the absence of positive reported data from WMDD
C=CCC1(C(C)CCC)C(=O)NC(=O)NC1=O (centres undefined) [SECOBARBITAL]	Negative: based on the absence of positive reported data from WMDD
C#CCN(C)[C@H](C)Cc1ccccc1 [SELEGILINE]	Negative: based on the absence of positive reported data from WMDD
O=C(O)c1cc(O)c2c(c1)[C@@H]([C@H]1c3cc(C(=O)O)cc(O)c3C(=O)c3c(O[C@@H]4O[C@H](CO)[C@@H](O)[C@H](O)[C@H]4O)cccc31)c1cccc(O[C@@H]3O[C@H](CO)[C@@H](O)[C@H](O)[C@H]3O)c1C2=O [SENNOSIDE B]	Negative: based on the absence of positive reported data from WMDD
CN[C@H]1CC[C@@H](c2ccc(Cl)c(Cl)c2)c2ccccc21 [SERTRALINE]	Positive: weak inducer based on presence of foamy macrophages and cytoplasmic vacuolations
OC[C@@H](O)[C@@H](O)[C@H](O)[C@@H](O)CO [SORBITOL]	Negative: based on the absence of positive reported data from WMDD
CC(C)NCC(O)c1ccc(NS(C)(=O)=O)cc1 (centres undefined) [SOTALOL]	Negative: confirmed by electron microscopy
